Laboratory results published in US5217971A, “Thiazole compounds and pharmaceutical composition comprising the same” (Fujisawa Pharmaceutical Co., Ltd., priority 1989, dated 1993).

How the values were obtained:
stomachs of the rats = assay: Effect on stomach of rats; assay type: in vivo; conditions: 100 mg/kg, oral
rats = assay: Acute toxicity in rats by peroral administration; assay type: in vivo
platelet aggregation = assay: Platelet aggregation ex vivo (1), arachidonic acid-induced, PRP after oral administration; assay type: in vivo, male Hartley guinea-pigs; conditions: guinea-pig, oral 1.0 mg/kg, 6 hours after administration, arachidonic acid final 50 μM
Procedure: Male Hartley guinea-pigs weighing about 300 g were used after 24 hours fasting. Six hours after oral administration of the test compound or vehicle of test compound (control), blood was collected into a tube containing 0.1 vol. of 3.8% sodium citrate and prepared platelet rich plasma (PRP).
To the 250 μl of PRP, 5 μl of arachidonic acid (final 50 μM) was added as an aggregation inducer. Aggregation was measured by using an aggregometer (NKK HEMA-TRACER 1).

thrombin = assay: Assay for thrombin activity (S-2238 substrate); assay type: biochemical; conditions: concentration 1.0 × 10^-4 M, pH 8.0, 37° C.
Procedure: Thrombin activity was measured using the synthetic peptide substrate (S-2238, Kabivitrum).
After 900 μl of 0.1 M Tris-HCl buffer (pH 8.0), 100 μl of drug solution and 10 μl of 3U/ml thrombin were incubated at 37° C. for 5 min, 2 ml of 100 μM S-2238 was added.
The rate of increase in absorbance at 405 nm due to hydrolysis of S-2238 was measured with a spectrophotometer.
Inhibition (%) of drug was calculated as follows:
Inhibition (%)=(S-B)/A×100
A:Abs/min in the absence of drug
B:Abs/min in the presence of drug

SMILES: COc1ccc(-c2nc(C(=O)N3CCN(C)CC3)sc2-c2ccc(OC)cc2)cc1.Cl [Example 1, 4,5-bis(4-methoxyphenyl)-2-(4methylpiperazin-1-yl)carbonylthiazole hydrochloride]
- lesion in stomachs of rats (stomachs of the rats): No lesion was observed
- acute toxicity, deaths at 100 mg/kg (rats): the dead at dose of 100 mg/kg could not be observed
- Inhibition (%) of platelet aggregation (platelet aggregation): 100%

SMILES: COc1ccc(-c2nc(C(=O)NC(=N)N)sc2-c2ccc(OC)cc2)cc1 [Example 5, 4,5-bis(4-methoxyphenyl)-2-guanidinocarbonylthiazole]
- Inhibition (%) of thrombin activity (thrombin): 92.2%
